On to `*/C(C)=C(/*)[Si](C)(C)CCC` (repeat unit), for which the CH4 permeability turned out to be 44 Barrer, the CO2 permeability came to 230 Barrer, the H2 permeability was determined as 250 Barrer and the N2 permeability amounted to 21 Barrer. This molecule also returned an O2 permeability of 70 Barrer.

On to `*C(=C(*)c1ccc2c(c1)C(C)(C)C(C)(C)C2(C)C)c1ccccc1` (repeat unit), for which the CH4 permeability is 24700 Barrer, the CO2 permeability came to 35800 Barrer, the H2 permeability was determined as 23600 Barrer and the N2 permeability was determined as 10200 Barrer. Moreover, the O2 permeability was 12700 Barrer.

With `*Oc1ccc(Oc2ccc(C(=O)c3ccc(*)cc3)cc2)c(-c2cc(C)cc(C)c2)c1` (repeat unit), the CH4 permeability is 0.05 Barrer, the CO2 permeability was determined as 1.6 Barrer, the H2 permeability amounted to 4.6 Barrer and the N2 permeability was 0.053 Barrer. The molecule also registered an O2 permeability of 0.33 Barrer.

`*Oc1ccc(Oc2ccc(C(=O)c3ccc(*)cc3)cc2)c(-c2cccc(C(F)(F)F)c2)c1` (repeat unit) yielded a CH4 permeability of 0.041 Barrer, a CO2 permeability of 1.5 Barrer, an H2 permeability of 5.1 Barrer and an N2 permeability of 0.051 Barrer. This molecule also yielded an O2 permeability of 0.38 Barrer.

As for `*Oc1ccc(Oc2ccc(C(=O)c3ccc(*)cc3)cc2)c(-c2cccc(C)c2)c1` (repeat unit), the CH4 permeability was found to be 0.024 Barrer, the CO2 permeability worked out at 1 Barrer, the H2 permeability turned out to be 3.8 Barrer and the N2 permeability was 0.029 Barrer. This molecule had an O2 permeability of 0.2 Barrer.

Regarding `*Oc1ccc(Oc2ccc(C(=O)c3ccc(*)cc3)cc2)cc1` (repeat unit), the CH4 permeability was 0.0311 Barrer, the CO2 permeability was 0.963 Barrer, the N2 permeability is 0.0398 Barrer and the O2 permeability came to 0.259 Barrer.

`*Oc1ccc(Oc2ccc(C(=O)c3ccc(*)cc3)cc2)cc1C(C)(C)C` (repeat unit) displayed a CH4 permeability of 0.221 Barrer, a CO2 permeability of 4.65 Barrer, an N2 permeability of 0.217 Barrer and an O2 permeability of 1.39 Barrer.

Regarding `*Oc1ccc(Oc2ccc(Oc3ccc(S(=O)(=O)c4ccc(*)cc4)cc3)cc2)cc1` (repeat unit), the CH4 permeability was determined as 0.18 Barrer, the CO2 permeability came out at 4.3 Barrer, the H2 permeability is 15 Barrer and the N2 permeability was determined as 0.196 Barrer. The O2 permeability worked out at 1.1 Barrer.

In turn, `*Oc1ccc(Oc2cccc(*)c2C#N)c(-c2cc(C(F)(F)F)cc(C(F)(F)F)c2)c1` (repeat unit) displayed a CH4 permeability of 0.83 Barrer, a CO2 permeability of 19 Barrer, an H2 permeability of 35 Barrer and an N2 permeability of 1.12 Barrer. The O2 permeability stood at 6.6 Barrer.

For the molecule `*Oc1ccc(Oc2cccc(*)c2C#N)c(-c2cc(C)cc(C)c2)c1` (repeat unit), the CH4 permeability came to 0.06 Barrer, the CO2 permeability stood at 3.5 Barrer, the H2 permeability is 9.6 Barrer and the N2 permeability came to 0.17 Barrer. Moreover, the O2 permeability was found to be 0.94 Barrer.

Take `*Oc1ccc(Oc2cccc(*)c2C#N)c(-c2cccc(C(F)(F)F)c2)c1` (repeat unit): the CH4 permeability is 0.09 Barrer, the CO2 permeability is 3.7 Barrer, the H2 permeability is 9.3 Barrer and the N2 permeability came out at 0.15 Barrer. This molecule also registered an O2 permeability of 0.87 Barrer.

The molecule `*Oc1ccc(Oc2cccc(*)c2C#N)c(-c2cccc(C)c2)c1` (repeat unit) returned a CH4 permeability of 0.05 Barrer, a CO2 permeability of 1.9 Barrer, an H2 permeability of 6.8 Barrer and an N2 permeability of 0.07 Barrer. This molecule also displayed an O2 permeability of 0.45 Barrer.

With `*Oc1ccc(S(=O)(=O)c2ccc(-c3ccc(S(=O)(=O)c4ccc(Oc5ccc(C(C)(C)c6ccc(*)cc6)cc5)cc4)cc3)cc2)cc1` (repeat unit), the CH4 permeability was found to be 0.5 Barrer, the CO2 permeability came out at 10.8 Barrer, the H2 permeability turned out to be 20.1 Barrer and the N2 permeability amounted to 0.469 Barrer. The molecule also had an O2 permeability of 2.39 Barrer.

For the molecule `*Oc1ccc(S(=O)(=O)c2ccc(Oc3c(C)cc(-c4cc(C)c(*)c(C)c4)cc3C)cc2)cc1` (repeat unit), the CH4 permeability was 1.27 Barrer, the CO2 permeability was 31.8 Barrer, the N2 permeability turned out to be 1.21 Barrer and the O2 permeability turned out to be 5.8 Barrer.

For `*Oc1ccc(S(=O)(=O)c2ccc(Oc3c(C)cc(C(C)(C)c4cc(C)c(*)c(C)c4)cc3C)cc2)cc1` (repeat unit), the CH4 permeability was 0.522 Barrer, the CO2 permeability amounted to 21 Barrer, the H2 permeability amounted to 15.5 Barrer and the N2 permeability worked out at 1.06 Barrer. The molecule also yielded an O2 permeability of 5.6 Barrer.

Molecule `*Oc1ccc(S(=O)(=O)c2ccc(Oc3ccc(-c4ccc(*)cc4)cc3)cc2)cc1` (repeat unit) returned a CH4 permeability of 0.255 Barrer, a CO2 permeability of 5.6 Barrer, an N2 permeability of 0.236 Barrer and an O2 permeability of 1.3 Barrer.

In the case of `*Oc1ccc(S(=O)(=O)c2ccc(Oc3ccc(C(C)(C)c4ccc(*)c(C)c4)cc3C)cc2)cc1` (repeat unit), the CH4 permeability amounted to 0.0706 Barrer, the CO2 permeability stood at 2.1 Barrer, the N2 permeability amounted to 0.0914 Barrer and the O2 permeability was found to be 0.64 Barrer.

Take `*Oc1ccc(S(=O)(=O)c2ccc(Oc3ccc(C(C)(C)c4ccc(*)cc4)cc3CN)cc2)cc1` (repeat unit): the CH4 permeability was found to be 0.11 Barrer, the CO2 permeability amounted to 1.95 Barrer, the N2 permeability was 0.11 Barrer and the O2 permeability is 0.7 Barrer.

Turning to `*Oc1ccc(S(=O)(=O)c2ccc(Oc3ccc(C(C)(C)c4ccc(*)cc4)cc3CN3C(=O)c4ccccc4C3=O)cc2)cc1` (repeat unit), the CH4 permeability was determined as 0.08 Barrer, the CO2 permeability amounted to 2.12 Barrer, the N2 permeability worked out at 0.08 Barrer and the O2 permeability was 0.54 Barrer.

`*Oc1ccc(S(=O)(=O)c2ccc(Oc3ccc(C(C)(C)c4ccc(*)cc4)cc3N)cc2)cc1` (repeat unit) came in with a CH4 permeability of 0.12 Barrer, a CO2 permeability of 2.95 Barrer, an N2 permeability of 0.12 Barrer and an O2 permeability of 0.745 Barrer.

In the case of `*Oc1ccc(S(=O)(=O)c2ccc(Oc3ccc(C(C)(C)c4cccc(*)c4)cc3)cc2)cc1` (repeat unit), the CH4 permeability amounted to 0.0432 Barrer, the CO2 permeability was 1.5 Barrer, the N2 permeability is 0.0661 Barrer and the O2 permeability was 0.39 Barrer.

On to `*Oc1ccc(S(=O)(=O)c2ccc(Oc3ccc(C(C)(c4ccccc4)c4ccc(*)cc4)cc3)cc2)cc1` (repeat unit), for which the CH4 permeability came out at 0.32 Barrer, the CO2 permeability was determined as 8.12 Barrer, the N2 permeability turned out to be 0.278 Barrer and the O2 permeability was 1.56 Barrer.

`*Oc1ccc(S(=O)(=O)c2ccc(Oc3ccc(C4(c5ccc(*)cc5)c5ccccc5-c5ccccc54)cc3)cc2)cc1` (repeat unit) gave a CH4 permeability of 0.531 Barrer, a CO2 permeability of 13.8 Barrer, an N2 permeability of 0.484 Barrer and an O2 permeability of 2.76 Barrer.

For the molecule `*Oc1ccc(S(=O)(=O)c2ccc(Oc3cccc4c(*)cccc34)cc2)cc1` (repeat unit), the CH4 permeability was 0.0364 Barrer, the CO2 permeability was 1.6 Barrer, the H2 permeability stood at 8.1 Barrer and the N2 permeability was 0.0568 Barrer. This molecule yielded an O2 permeability of 0.42 Barrer.

As to `*Oc1ccc2c(c1)C1(CC2(C)C)CC(C)(C)c2ccc(OC(=O)c3cccc(C(*)=O)c3)cc21` (repeat unit), the CH4 permeability is 1.14 Barrer, the CO2 permeability came to 18.9 Barrer, the N2 permeability turned out to be 1 Barrer and the O2 permeability came to 5.31 Barrer.

The molecule `*Oc1ccc2c(c1)C1(CC2(C)C)CC(C)(C)c2ccc(Oc3ccc4c(c3)C(=O)N(c3cccc(N5C(=O)c6ccc(*)cc6C5=O)c3)C4=O)cc21` (repeat unit) displayed a CH4 permeability of 0.155 Barrer, a CO2 permeability of 4.5 Barrer, an N2 permeability of 0.203 Barrer and an O2 permeability of 1.4 Barrer.

On to `*Oc1cccc(C(C)(C)c2ccc(Oc3ccc(S(=O)(=O)c4ccc(*)cc4)cc3)cc2)c1` (repeat unit), for which the CH4 permeability stood at 0.052 Barrer, the CO2 permeability is 1.5 Barrer, the H2 permeability was found to be 8 Barrer and the N2 permeability was determined as 0.066 Barrer. The molecule further showed an O2 permeability of 0.39 Barrer.

On to `*Oc1cccc2c(Oc3ccc(S(=O)(=O)c4ccc(*)cc4)cc3)cccc12` (repeat unit), for which the CH4 permeability was found to be 0.036 Barrer, the CO2 permeability was 1.6 Barrer, the N2 permeability came to 0.057 Barrer and the O2 permeability worked out at 0.42 Barrer.

`*c1c(C)c(C)c(N2C(=O)c3cc4c(cc3C2=O)C2(CC(C)(C)c3cc5c(cc32)C(=O)N(*)C5=O)CC4(C)C)c(C)c1C` (repeat unit) gave a CH4 permeability of 390 Barrer, a CO2 permeability of 3940 Barrer, an H2 permeability of 1920 Barrer and an N2 permeability of 257 Barrer. The O2 permeability was 722 Barrer.

Molecule `*c1c(C)c(C)c(N2C(=O)c3ccc(C(c4ccc5c(c4)C(=O)N(*)C5=O)(C(F)(F)F)C(F)(F)F)cc3C2=O)c(C)c1C` (repeat unit) gave a CH4 permeability of 45.2 Barrer, a CO2 permeability of 734 Barrer, an H2 permeability of 434 Barrer and an N2 permeability of 37.8 Barrer. Also, the O2 permeability worked out at 87 Barrer.

Consider `*c1c(C)c(C)c(N2C(=O)c3ccc(Oc4cc(C)c(Oc5ccc6c(c5)C(=O)N(*)C6=O)c(C)c4C)cc3C2=O)c(C)c1C` (repeat unit), for which the CH4 permeability is 7.6 Barrer, the CO2 permeability amounted to 200 Barrer, the H2 permeability was determined as 230 Barrer and the N2 permeability is 8.1 Barrer. The molecule further displayed an O2 permeability of 33 Barrer.

`*c1c(C)c2c(c(N3C(=O)c4ccc(-c5ccc6c(c5)C(=O)N(*)C6=O)cc4C3=O)c1C)C(C)(C)CC2` (repeat unit): the CH4 permeability is 23.9 Barrer, the CO2 permeability was 329 Barrer, the N2 permeability was 22 Barrer and the O2 permeability came to 83.4 Barrer.

The molecule `*c1c(C)c2c(c(N3C(=O)c4ccc(Oc5ccc6c(c5)C(=O)N(*)C6=O)cc4C3=O)c1C)C(C)(C)CC2` (repeat unit) had a CH4 permeability of 10.3 Barrer, a CO2 permeability of 161 Barrer, an N2 permeability of 10.3 Barrer and an O2 permeability of 43.9 Barrer.

Source of the values: a polymer gas permeability compilation.
